The text below walks through data of ChEMBL document CHEMBL5131375, “Recent Developments in the Use of Kinase Inhibitors for Management of Viral Infections” (J Med Chem, 2022).

A short description of series [1]: Cytotoxicity against human A549 cells. It is filed as toxicity, cell-based.
The subject of series [2] is Human alphaherpesvirus 1. The series is described as follows: Antiviral activity against HSV-1 at 10 uM relative to control. In kind it is functional.
Series [3] deals with Tyrosine-protein kinase JAK2 (Homo sapiens, UniProt O60674).
Series [4] concerns the target Receptor tyrosine-protein kinase erbB-2 (Homo sapiens, UniProt P04626). The series is described as follows: Inhibition of HER2/ErbB-2 (unknown origin).
Series [5] deals with Influenza A virus. The series is described as follows: microbe, parasite or virus in culture. In kind it is functional, organism-based.
The test system of series [6] is Influenza A virus. The series is described as follows: Antiviral activity against influenza A virus infected in human A549 cells assessed as inhibition of viral replication at 10 uM relative to control. In kind it is functional. The arrangement: scale not given: the % may be the effect or the level left.
The subject of series [7] is Hepatitis C virus. The series is described as follows: microbe, parasite or virus in culture.
Series [8] deals with Hepatitis C virus. The series is described as follows: Antiviral activity against HCV GT1b-genotype assessed as inhibition of viral replication. In kind it is functional, organism-based, Hepacivirus hominis.
A short description of series [9]: in vitro. As to conditions: human, Huh-7 cells.
The subject of series [10] is Influenza A virus. The series is described as follows: Antiviral activity against influenza A/Regensburg/D6/2009 virus. It is filed as functional, organism-based.
For series [11], the system named is Influenza A virus. The series is described as follows: microbe, parasite or virus in culture. In kind it is functional, organism-based. To be noted: H1N1pdm09.
The test system of series [12] is Influenza A virus. The series is described as follows: Antiviral actiivty against Influenza A (A/Regensburg/D6/2009 (H1N1)) infected in human A549 cells. In kind it is functional, organism-based.
Series [13] can be described thus: in vitro. As to conditions: human, Huh-7.5.1 cells.
The subject of the next series is Human rhinovirus sp. The series is described as follows: microbe, parasite or virus in culture.
In series [14] the test system is Hepatitis C virus. The series is described as follows: microbe, parasite or virus in culture. As to conditions: subtype 1b.
A further series relates to Coxsackievirus B3. The series is described as follows: microbe, parasite or virus in culture. To be noted: Enterovirus B.
The nature of series [15]: in vitro. As to conditions: human, hela.
The target of the next series is Janus Kinase (JAK) (Homo sapiens, UniProt P52333+P23458+O60674+P29597). In kind it is protein assay.
Another series relates to Vero C1008. The series is described as follows: Cytotoxicity against African green monkey Vero E6 cells at 250 nM. In kind it is toxicity, cell-based. To be noted: chlorocebus sabaeus, vero c1008, 0.25 µM.
Series [16] concerns SARS-CoV-2. The series is described as follows: microbe, parasite or virus in culture. In kind it is functional, organism-based. As to conditions: Severe acute respiratory syndrome coronavirus 2.
The subject of series [17] is SARS-CoV-2. The series is described as follows: microbe, parasite or virus in culture. It is filed as functional, organism-based. As to conditions: Severe acute respiratory syndrome coronavirus 2. This is another data set of the same source.
Series [18] relates to Human alphaherpesvirus 1. The series is described as follows: Antiviral activity against HSV-1 in HFL1 cells incubated for 24 hrs. It is filed as functional, organism-based. To be noted: Human alphaherpesvirus 1, HFL1, 24 h.
The nature of series [19]: Cytotoxicity against HFL1 cells. As to conditions: human. It is filed as toxicity, cell-based.
Series [20] concerns Human alphaherpesvirus 1. The series is described as follows: microbe, parasite or virus in culture. It is filed as functional, organism-based.
Series [21] deals with Human betaherpesvirus 5. The series is described as follows: Antiviral activity against HCMV Merlin (RCMV 1111) infected in HFF cells incubated for 96 hrs. In kind it is functional, organism-based. To be noted: Human betaherpesvirus 5, Merlin (RCMV 1111).
In series [22] the test system is Human betaherpesvirus 5. The series is described as follows: microbe, parasite or virus in culture. In kind it is functional, organism-based.
For series [23], the system named is Human betaherpesvirus 5. The series is described as follows: Antiviral activity against HCMV AD169 infected in HFF cells incubated for 96 hrs. It is filed as functional, organism-based. To be noted: Human betaherpesvirus 5, AD169, HFF.
In series [24] the test system is Marburgvirus. The series is described as follows: microbe, parasite or virus in culture. As to conditions: Orthomarburgvirus.
Series [25] deals with Marburgvirus. The series is described as follows: microbe, parasite or virus in culture. To be noted: Orthomarburgvirus. In kind it is functional, organism-based.
Series [26] deals with Vesicular stomatitis virus. The series is described as follows: microbe, parasite or virus in culture.
The subject of series [27] is Lassa virus. The series is described as follows: microbe, parasite or virus in culture. To be noted: Mammarenavirus lassaense, A549.
Series [28] has as its system Ebolavirus. The series is described as follows: microbe, parasite or virus in culture. To be noted: Orthoebolavirus. In kind it is functional, organism-based.
Series [29] relates to Lassa virus. The series is described as follows: microbe, parasite or virus in culture. To be noted: Mammarenavirus lassaense.
Series [30] is described as follows: in vitro. As to conditions: chlorocebus sabaeus, vero.
Series [31] relates to Lassa virus. The series is described as follows: microbe, parasite or virus in culture. To be noted: Mammarenavirus lassaense. The source holds these as a separate data set.
The subject of series [32] is Ebolavirus. The series is described as follows: microbe, parasite or virus in culture. To be noted: Orthoebolavirus.
In series [33] the test system is Ebolavirus. The series is described as follows: microbe, parasite or virus in culture. To be noted: Orthoebolavirus. This is another data set of the same source.
The subject of series [34] is Ebolavirus. The series is described as follows: microbe, parasite or virus in culture. As to conditions: Orthoebolavirus, Huh-7.

Chain of Tyrosine-protein kinase JAK2 (O60674 whole entry): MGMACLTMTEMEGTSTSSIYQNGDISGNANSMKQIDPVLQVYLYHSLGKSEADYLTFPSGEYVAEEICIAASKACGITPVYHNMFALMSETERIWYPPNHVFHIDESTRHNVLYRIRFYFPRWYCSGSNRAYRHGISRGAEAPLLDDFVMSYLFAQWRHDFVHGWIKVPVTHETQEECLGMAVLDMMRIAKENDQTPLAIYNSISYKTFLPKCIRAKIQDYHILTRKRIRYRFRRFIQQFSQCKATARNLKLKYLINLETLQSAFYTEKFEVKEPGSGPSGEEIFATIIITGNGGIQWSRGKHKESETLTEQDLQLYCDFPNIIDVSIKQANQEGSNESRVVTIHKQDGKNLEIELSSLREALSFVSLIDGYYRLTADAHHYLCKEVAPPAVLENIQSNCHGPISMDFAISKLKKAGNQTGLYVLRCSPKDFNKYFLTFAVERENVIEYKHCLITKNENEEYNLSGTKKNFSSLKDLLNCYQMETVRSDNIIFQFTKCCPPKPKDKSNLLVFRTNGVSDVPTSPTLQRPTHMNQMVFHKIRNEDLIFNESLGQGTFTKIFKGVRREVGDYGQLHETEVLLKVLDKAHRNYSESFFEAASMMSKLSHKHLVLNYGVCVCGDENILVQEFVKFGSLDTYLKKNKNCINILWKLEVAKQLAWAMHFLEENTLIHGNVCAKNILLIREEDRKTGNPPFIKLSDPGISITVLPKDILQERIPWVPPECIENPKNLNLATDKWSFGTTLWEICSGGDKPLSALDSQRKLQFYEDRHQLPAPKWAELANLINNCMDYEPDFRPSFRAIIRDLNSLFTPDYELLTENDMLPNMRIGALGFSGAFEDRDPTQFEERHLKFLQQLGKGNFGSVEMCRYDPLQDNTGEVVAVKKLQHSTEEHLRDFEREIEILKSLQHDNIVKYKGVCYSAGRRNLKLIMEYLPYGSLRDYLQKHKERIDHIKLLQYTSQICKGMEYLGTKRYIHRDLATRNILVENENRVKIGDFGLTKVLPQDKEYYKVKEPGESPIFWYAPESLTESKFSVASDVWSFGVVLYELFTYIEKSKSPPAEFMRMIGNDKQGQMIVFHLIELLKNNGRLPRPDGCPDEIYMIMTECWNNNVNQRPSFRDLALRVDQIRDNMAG
Chain of Receptor tyrosine-protein kinase erbB-2 (P04626 whole entry): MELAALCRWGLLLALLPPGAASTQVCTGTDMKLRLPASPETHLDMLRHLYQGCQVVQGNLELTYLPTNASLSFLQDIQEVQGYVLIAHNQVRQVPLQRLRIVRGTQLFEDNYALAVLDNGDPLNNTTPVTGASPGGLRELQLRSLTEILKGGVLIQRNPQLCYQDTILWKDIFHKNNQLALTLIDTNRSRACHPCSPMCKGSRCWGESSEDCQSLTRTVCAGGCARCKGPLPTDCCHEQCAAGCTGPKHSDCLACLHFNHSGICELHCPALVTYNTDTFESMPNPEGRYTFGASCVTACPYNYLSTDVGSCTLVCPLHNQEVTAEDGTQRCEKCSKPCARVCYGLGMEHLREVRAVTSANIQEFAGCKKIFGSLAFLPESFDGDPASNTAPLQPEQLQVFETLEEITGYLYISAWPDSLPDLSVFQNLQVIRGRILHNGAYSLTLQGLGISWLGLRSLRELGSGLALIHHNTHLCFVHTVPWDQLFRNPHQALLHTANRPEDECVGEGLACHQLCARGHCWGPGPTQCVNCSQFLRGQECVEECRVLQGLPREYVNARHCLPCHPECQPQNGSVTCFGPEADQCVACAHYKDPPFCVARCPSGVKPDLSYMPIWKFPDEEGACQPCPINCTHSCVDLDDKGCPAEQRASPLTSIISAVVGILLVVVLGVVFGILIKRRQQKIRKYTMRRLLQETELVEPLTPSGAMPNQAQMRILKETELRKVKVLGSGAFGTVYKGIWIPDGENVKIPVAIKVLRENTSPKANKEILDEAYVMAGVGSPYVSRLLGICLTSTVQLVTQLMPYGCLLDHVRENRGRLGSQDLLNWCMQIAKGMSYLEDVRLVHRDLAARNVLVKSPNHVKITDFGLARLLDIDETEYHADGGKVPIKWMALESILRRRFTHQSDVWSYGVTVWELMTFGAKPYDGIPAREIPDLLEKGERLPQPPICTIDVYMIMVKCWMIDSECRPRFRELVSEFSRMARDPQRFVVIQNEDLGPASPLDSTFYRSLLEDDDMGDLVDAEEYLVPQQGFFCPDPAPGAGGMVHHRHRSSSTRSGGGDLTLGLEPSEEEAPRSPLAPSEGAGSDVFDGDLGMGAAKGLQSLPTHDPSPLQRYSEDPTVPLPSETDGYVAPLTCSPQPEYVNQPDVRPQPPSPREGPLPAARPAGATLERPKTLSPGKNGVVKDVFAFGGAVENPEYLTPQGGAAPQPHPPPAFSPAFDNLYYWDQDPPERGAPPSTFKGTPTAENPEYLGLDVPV

In series [1], `O=C(NOC[C@H](O)CO)c1ccc(F)c(F)c1Nc1ccc(I)cc1F` [MIRDAMETINIB] returned a CC50 above 100 µM.
On to `O=C(Nc1c[nH]nc1-c1nc2ccc(CN3CCOCC3)cc2[nH]1)NC1CC1` [AT-9283], for which the Activity in the series on Human alphaherpesvirus 1 [2] was 70%.
In [3], `Cc1cc(Nc2cc(CN3CCOCC3)c3nc(C)c(Cc4ccc(Cl)cc4F)n3n2)n[nH]1` [GANDOTINIB] showed an IC50 of 0.003 µM.
On to `CC(C)(C)c1cc(/C=C(\C#N)C(N)=S)cc(C(C)(C)C)c1O` [TYRPHOSTIN AG 879], for which the figures for the IC50 (in [4]; in the series with Influenza A virus [5]) were 1 µM and 10 µM, respectively. The Activity in the series with Influenza A virus [6] turned out to be 50%. Moreover, in [1], the CC50 is above 81 µM.
Regarding `CC(C)S(=O)(=O)n1c(N)nc2ccc(/C(=N/O)c3ccccc3)cc21` [ENVIROXIME], the EC50 was determined as 0.2 µM in the series with Hepatitis C virus [7] and 0.1 µM in the series on Hepatitis C virus [8]. In the series “in vitro [9]”, this compound returned a CC50 of 25 µM.
Turning to `Cn1cnc2c(F)c(Nc3ccc(Br)cc3Cl)c(C(=O)NOCCO)cc21` [SELUMETINIB], the EC50 in the series on Influenza A virus [10] and in the series with Influenza A virus [11] was 0.75 µM each time. Besides, the CC50 in [1] was above 100 µM.
In the case of `C[C@H](Nc1cc(-c2cnn(C)c2)cc(Nc2cnccn2)n1)c1ccc(F)cc1` [NS-018], the IC50 in series [3] came to 0.00027 µM.
In turn, `CCc1cnn2c(NCc3ccc[n+]([O-])c3)cc(N3CCCC[C@H]3CCO)nc12` [DINACICLIB] showed a CC50 in [1] above 100 µM.
`O=C(NOCC1CC1)c1ccc(F)c(F)c1Nc1ccc(I)cc1Cl` [CI-1040]: the EC50 in the series with Influenza A virus [12] was 0.026 µM. In addition, the CC50 in [1] came to 312 µM.
`COc1cc(-c2cnc3c(N4CCOCC4)snc3c2)cc(OC)c1OC`: the EC50 in the series on Hepatitis C virus [7] was 2.5 µM. For the same compound, the CC50 in “in vitro [13]” came out at 23.2 µM.
As to `CC(=O)NCCNc1cc(Cl)nn2c(-c3cccc(S(=O)(=O)N(C)C)c3)c(C)nc12`, the EC50 worked out at 1.03 µM in the series on Human rhinovirus sp., 0.08 µM in the series with Hepatitis C virus [14] and 0.14 µM in the series with Coxsackievirus B3. The compound also came in with a CC50 in the series “in vitro [15]” above 50 µM.
Compound `N#CCC1CCN(c2nc(Nc3ccc(N4CCC(O)CC4)cc3)c3c(=O)[nH]ncc3n2)CC1` [GUSACITINIB] showed an IC50 against Janus Kinase (JAK) of 0.005 µM.
In the case of `CNCc1ccc(-c2cc(-c3nc(-c4ccc(S(=O)(=O)C(C)C)cc4)cnc3N)on2)cc1` [BERZOSERTIB], the Activity entry in the series on Vero C1008 is on record as “Non-Toxic”. Moreover, the IC50 in the series with SARS-CoV-2 [16] and with SARS-CoV-2 [17] was 0.00428 µM throughout.
`Cc1c(NC(=O)c2cccc(NC(=O)C(C)NC(=O)c3ccco3)c2)c(=O)n(-c2ccccc2)n1C` (configuration not stated) came in with an IC50 with Human alphaherpesvirus 1 [18] of 29 µM. The compound further had a CC50 in series [19] of 2040 µM. In addition, a half-maximal effect in the series with Human alphaherpesvirus 1 [20] (EC50) was put at 64 µM.
On to `COc1cc[nH]c1/C=C1\C(=O)Nc2ccc([N+](=O)[O-])c(N3CC[C@@H](O)C3)c21`, for which the EC50 stood at 1.3 µM in the series on Human betaherpesvirus 5 [21], 0.01 µM in the series on Human betaherpesvirus 5 [22] and 0.01 µM in the series on Human betaherpesvirus 5 [23].
`CC1Oc2ccc(NC(=O)[C@@H](Cc3c[nH]c4ccccc34)NC(=O)c3ccc(F)cc3)cc2NC1=O` (some centres not stated) displayed an IC50 in the series with Human alphaherpesvirus 1 [18] of 29 µM. The CC50 in series [19] turned out to be 1410 µM. For the same compound, in the series on Human alphaherpesvirus 1 [20], a half-maximal response (EC50) required 29 µM.
In the case of `CN1CCC(Nc2ncc3ncnc(Nc4ccc(F)c(Cl)c4)c3n2)CC1` [FALNIDAMOL], the EC50 is 1.8 µM with Marburgvirus [24]; 1.8 µM with Marburgvirus [25]; 30.9 µM in series [26]; 3.2 µM in the series with Lassa virus [27]; 1.1 µM in the series with Ebolavirus [28]; 7.5 µM with Lassa virus [29]. The EC50 in the series with Lassa virus [31] worked out at 3.2 µM; in the series with Ebolavirus [32], 1.2 µM; in the series on Ebolavirus [33], 1.6 µM; with Ebolavirus [34] it was 1.1 µM. Moreover, the CC50 in the series “in vitro [30]” stood at 29.1 µM.
